Measurements: patent US20210220356A1, “DIHYDROPYRIMIDINE DERIVATIVES AND USES THEREOF IN THE TREATMENT OF HBV INFECTION OR OF HBV-INDUCED DISEASES” (Janssen Sciences Ireland Unlimited Company, priority 2018, published 2021)
Read-outs that look alike come from different tables or passages of the source.

Legend:
HBV = HBV inhibitory activity in HepG2.2.15 cells (HBV DNA in culture medium by q-PCR); assay type: cell-based; conditions: HepG2.2.15 cells, 40,000 cells/well, 6 days of compound treatment, HBV DNA in culture medium by q-PCR, highest concentration 10 uM, read-out: EC50
Outline: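 HepG2.2.15 cells (40,000/well, 2% FBS) treated 6 days with compounds, medium refreshed once; 8 points, 3-fold dilution, top 10 uM. Secreted HBV DNA in medium extracted and quantified by q-PCR; EC50 calculated from dose-response.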

[1] = Cytotoxicity determination in HepG2.2.15 cells (CCK-8); assay type: cell-based; conditions: human, HepG2.2.15 cells, HepG2.2.15 cells, 5,000 cells/well, 6 days of compound treatment, CCK-8 absorbance 450 nm, highest concentration 100 uM
Outline: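 HepG2.2.15 cells, 5,000/well in 2% FBS medium, treated 6 days with compound (medium refreshed midway), 8-point 3-fold dilutions from 100 uM top. Viability read by CCK-8, 2.5 h at 37° C, absorbance 450 nm with 630 nm reference; CC50 from curve fitting.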

Q: What does the source list for `CCOC(=O)C1=C(C2CCc3nn(CCC(=O)O)cc3C2)NC(c2nccs2)=NC1c1ccc(F)c(F)c1Cl` (single isomer, unassigned) [Compound 34a, 3-(5-(6-(2-chloro-3,4-difluorophenyl)-5-(ethoxycarbonyl)-2-(thiazol-2-yl)-3,6-dihydropyrimidin-4-yl)-4,5,6,7-tetrahydro-2H-indazol-2-yl)propanoic acid]?
A: EC50 (HBV): 0.385 µM; CC50 at 6 days [1]: 27.5 µM

Q: With `CCOC(=O)C1=C(C2CCc3nn(CCC(=O)O)cc3C2)NC(c2nccs2)=NC1c1ccc(F)c(F)c1C` (single isomer, unassigned) [Compound 35b, 3-(5-(6-(3,4-Difluoro-2-methylphenyl)-5-(ethoxycarbonyl)-2-(thiazol-2-yl)-3,6-dihydropyrimidin-4-yl)-4,5,6,7-tetrahydro-2H-indazol-2-yl)propanoic acid] as the molecule, how does the EC50 (HBV) read?
A: 0.0958 µM

Q: And the CC50 at 6 days [1]?
A: 20.7 µM

Q: For `CCOC(=O)C1=C(C2CCc3nn(CCC(=O)O)cc3C2)NC(c2nccs2)=NC1c1ccc(F)c(F)c1Br` (single isomer, unassigned) [Compound 36d, 3-(5-(6-(2-Bromo-3,4-difluorophenyl)-5-(ethoxycarbonyl)-2-(thiazol-2-yl)-3,6-dihydropyrimidin-4-yl)-4,5,6,7-tetrahydro-2H-indazol-2-yl)propanoic acid], which EC50 (HBV; Hepatitis B virus, HepG2.2.15, 144 h) is on record?
A: 0.0879 µM

Q: What about the CC50 at 6 days [1] of the same molecule?
A: 9.7 µM

Q: With `CCOC(=O)C1=C(C2CCc3nn(CCC(=O)O)cc3C2)NC(c2nccs2)=NC1c1ccc(F)cc1Cl` (single isomer, unassigned) [Compound 37b, 3-(5-(6-(2-Chloro-4-fluorophenyl)-5-(ethoxycarbonyl)-2-(thiazol-2-yl)-3,6-dihydropyrimidin-4-yl)-4,5,6,7-tetrahydro-2H-indazol-2-yl)propanoic acid] as the molecule, how does the EC50 (HBV) read?
A: 0.175 µM

Q: What about the CC50 at 6 days [1] of the same molecule?
A: 19.6 µM

Q: For `CCOC(=O)C1=C(C2CCc3nn(CCC(=O)O)cc3C2)NC(c2nccs2)=NC1c1ccc(F)cc1C` (single isomer, unassigned) [Compound 38a, 3-(5-(5-(Ethoxycarbonyl)-6-(4-fluoro-2-methylphenyl)-2-(thiazol-2-yl)-3,6-dihydropyrimidin-4-yl)-4,5,6,7-tetrahydro-2H-indazol-2-yl)propanoic acid], which EC50 (HBV) is on record?
A: 0.0145 µM

Q: And the CC50 at 6 days [1]?
A: 28.2 µM

Q: With `CCOC(=O)C1=C(C2CCc3nn(CCC(=O)O)cc3C2)NC(c2nccs2)=NC1c1ccc(F)cc1Br` (single isomer, unassigned) [Compound 39b, 3-(5-(6-(2-Bromo-4-fluorophenyl)-5-(ethoxycarbonyl)-2-(thiazol-2-yl)-3,6-dihydropyrimidin-4-yl)-4,5,6,7-tetrahydro-2H-indazol-2-yl)propanoic acid] as the molecule, how does the EC50 (HBV) read?
A: 0.165 µM

Q: And the CC50 at 6 days [1]?
A: 13.1 µM

Q: For `CCOC(=O)C1=C(C2CCc3nn(CCC(=O)O)cc3C2)NC(c2nccs2)=NC1c1cccc(F)c1Cl` (single isomer, unassigned) [Compound 40b, 3-(5-(6-(2-Chloro-3-fluorophenyl)-5-(ethoxycarbonyl)-2-(thiazol-2-yl)-3,6-dihydropyrimidin-4-yl)-4,5,6,7-tetrahydro-2H-indazol-2-yl)propanoic acid], which EC50 (HBV) is on record?
A: 0.48 µM

Q: What about the CC50 at 6 days [1] of the same molecule?
A: 21.5 µM

Q: For `CCOC(=O)C1=C(C2CCc3nn(CCC(=O)O)cc3C2)NC(c2nccs2)=NC1c1cccc(F)c1Br` (single isomer, unassigned) [Compound 42b, 3-(5-(6-(2-bromo-3-fluorophenyl)-5-(ethoxycarbonyl)-2-(thiazol-2-yl)-3,6-dihydropyrimidin-4-yl)-4,5,6,7-tetrahydro-2H-indazol-2-yl)propanoic acid], which EC50 (HBV) is on record?
A: 0.131 µM

Q: What about the CC50 at 6 days [1] of the same molecule?
A: 10.2 µM

Q: Which results are given for `CCOC(=O)C1=C(C2CCc3nn(CCC(=O)O)cc3C2)NC(c2ncc(F)cc2F)=NC1c1ccc(F)c(F)c1Cl` (single isomer, unassigned) [Compound 43b, 3-(5-(6-(2-Chloro-3,4-difluorophenyl)-2-(3,5-difluoropyridin-2-yl)-5-(ethoxycarbonyl)-3,6-dihydropyrimidin-4-yl)-4,5,6,7-tetrahydro-2H-indazol-2-yl)propanoic acid]?
A: EC50 (HBV): 0.125 µM; CC50 at 6 days [1]: 31.3 µM
